Data on eight compounds can be found in ChEMBL document CHEMBL1201862, “PubChem BioAssay data set” (2004).

The structures appear in SMILES notation. Activity calls are given as the source filed them.

One series deals with Cytochrome P450 2C19 (Homo sapiens, UniProt P33261). Put plainly: Cytochrome panel assay with activity outcomes. Panel member name: p450-cyp2c19 Compounds with AC50 equal or less than 10 uM are considered active. Format: functional.
The next series deals with Cytochrome P450 3A4 (Homo sapiens, UniProt P08684).
The target in another series is Cytochrome P450 2D6 (Homo sapiens, UniProt P10635).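 Further: CYP2D6 member of a cytochrome P450 panel assay.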
Series [1] has as its target Voltage-dependent T-type calcium channel subunit alpha-1H (Homo sapiens, UniProt O95180). Type of series: functional.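 Further: channel activity triggered by adding a high calcium stimulation buffer.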
The next series deals with HeLa. Put plainly: HeLa cell cytotoxicity, dose response, cytotoxicity control for MITF activator project, CellTiter-Glo luminescence, cherry-pick samples (AID 540259). Format: functional, cell-based. The note with it: Homo sapiens. On the technique in general: In ATP-based viability assays light output follows the ATP content of the culture.
For another series, the target named is T1, Exodeoxyribonuclease V (Escherichia coli (strain K12), UniProt P04993+P07648+P08394).
T1 sequence (P04993 whole entry): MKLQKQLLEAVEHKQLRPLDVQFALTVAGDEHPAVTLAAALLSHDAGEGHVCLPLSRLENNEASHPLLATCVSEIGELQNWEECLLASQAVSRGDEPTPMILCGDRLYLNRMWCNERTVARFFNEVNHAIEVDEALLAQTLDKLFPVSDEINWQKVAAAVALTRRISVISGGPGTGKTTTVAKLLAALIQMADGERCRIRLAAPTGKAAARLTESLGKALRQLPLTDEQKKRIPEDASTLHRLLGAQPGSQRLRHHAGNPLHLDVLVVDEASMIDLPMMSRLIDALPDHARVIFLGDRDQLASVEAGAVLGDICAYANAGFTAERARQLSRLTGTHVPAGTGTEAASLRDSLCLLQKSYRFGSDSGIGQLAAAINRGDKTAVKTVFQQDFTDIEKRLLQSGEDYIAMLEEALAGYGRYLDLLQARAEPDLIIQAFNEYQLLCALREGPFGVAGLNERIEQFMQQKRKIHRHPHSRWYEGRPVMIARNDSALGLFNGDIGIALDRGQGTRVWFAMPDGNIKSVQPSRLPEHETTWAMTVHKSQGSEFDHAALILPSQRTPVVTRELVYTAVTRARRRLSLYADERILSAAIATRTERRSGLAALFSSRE
T1 sequence (P07648 whole entry): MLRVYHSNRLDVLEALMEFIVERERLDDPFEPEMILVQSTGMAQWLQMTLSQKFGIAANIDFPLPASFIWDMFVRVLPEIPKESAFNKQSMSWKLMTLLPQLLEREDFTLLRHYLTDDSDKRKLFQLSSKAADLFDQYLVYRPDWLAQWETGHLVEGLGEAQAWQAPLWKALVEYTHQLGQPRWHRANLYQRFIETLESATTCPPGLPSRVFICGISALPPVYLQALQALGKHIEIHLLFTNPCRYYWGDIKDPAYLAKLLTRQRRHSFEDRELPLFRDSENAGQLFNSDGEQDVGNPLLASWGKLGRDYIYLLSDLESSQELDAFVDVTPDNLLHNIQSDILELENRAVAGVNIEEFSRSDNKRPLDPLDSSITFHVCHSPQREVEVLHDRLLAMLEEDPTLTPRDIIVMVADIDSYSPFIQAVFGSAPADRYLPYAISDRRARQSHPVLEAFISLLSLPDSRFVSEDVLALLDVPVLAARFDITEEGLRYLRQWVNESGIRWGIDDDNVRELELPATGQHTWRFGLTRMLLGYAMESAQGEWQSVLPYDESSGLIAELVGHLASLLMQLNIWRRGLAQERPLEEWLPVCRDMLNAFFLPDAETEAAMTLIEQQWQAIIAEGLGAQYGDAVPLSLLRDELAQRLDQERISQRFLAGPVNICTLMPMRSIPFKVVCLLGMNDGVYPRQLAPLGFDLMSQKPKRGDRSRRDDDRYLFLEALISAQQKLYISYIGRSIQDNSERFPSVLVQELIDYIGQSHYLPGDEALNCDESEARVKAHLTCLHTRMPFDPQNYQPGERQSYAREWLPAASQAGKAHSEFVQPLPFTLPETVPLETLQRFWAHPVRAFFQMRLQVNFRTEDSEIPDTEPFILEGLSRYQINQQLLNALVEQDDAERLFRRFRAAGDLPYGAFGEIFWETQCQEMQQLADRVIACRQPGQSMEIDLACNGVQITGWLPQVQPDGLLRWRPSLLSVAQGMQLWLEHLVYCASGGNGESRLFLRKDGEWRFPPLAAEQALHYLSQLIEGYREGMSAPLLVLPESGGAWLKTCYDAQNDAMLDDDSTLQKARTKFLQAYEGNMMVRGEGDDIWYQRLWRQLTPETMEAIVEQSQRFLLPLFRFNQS
T1 sequence (P08394 whole entry): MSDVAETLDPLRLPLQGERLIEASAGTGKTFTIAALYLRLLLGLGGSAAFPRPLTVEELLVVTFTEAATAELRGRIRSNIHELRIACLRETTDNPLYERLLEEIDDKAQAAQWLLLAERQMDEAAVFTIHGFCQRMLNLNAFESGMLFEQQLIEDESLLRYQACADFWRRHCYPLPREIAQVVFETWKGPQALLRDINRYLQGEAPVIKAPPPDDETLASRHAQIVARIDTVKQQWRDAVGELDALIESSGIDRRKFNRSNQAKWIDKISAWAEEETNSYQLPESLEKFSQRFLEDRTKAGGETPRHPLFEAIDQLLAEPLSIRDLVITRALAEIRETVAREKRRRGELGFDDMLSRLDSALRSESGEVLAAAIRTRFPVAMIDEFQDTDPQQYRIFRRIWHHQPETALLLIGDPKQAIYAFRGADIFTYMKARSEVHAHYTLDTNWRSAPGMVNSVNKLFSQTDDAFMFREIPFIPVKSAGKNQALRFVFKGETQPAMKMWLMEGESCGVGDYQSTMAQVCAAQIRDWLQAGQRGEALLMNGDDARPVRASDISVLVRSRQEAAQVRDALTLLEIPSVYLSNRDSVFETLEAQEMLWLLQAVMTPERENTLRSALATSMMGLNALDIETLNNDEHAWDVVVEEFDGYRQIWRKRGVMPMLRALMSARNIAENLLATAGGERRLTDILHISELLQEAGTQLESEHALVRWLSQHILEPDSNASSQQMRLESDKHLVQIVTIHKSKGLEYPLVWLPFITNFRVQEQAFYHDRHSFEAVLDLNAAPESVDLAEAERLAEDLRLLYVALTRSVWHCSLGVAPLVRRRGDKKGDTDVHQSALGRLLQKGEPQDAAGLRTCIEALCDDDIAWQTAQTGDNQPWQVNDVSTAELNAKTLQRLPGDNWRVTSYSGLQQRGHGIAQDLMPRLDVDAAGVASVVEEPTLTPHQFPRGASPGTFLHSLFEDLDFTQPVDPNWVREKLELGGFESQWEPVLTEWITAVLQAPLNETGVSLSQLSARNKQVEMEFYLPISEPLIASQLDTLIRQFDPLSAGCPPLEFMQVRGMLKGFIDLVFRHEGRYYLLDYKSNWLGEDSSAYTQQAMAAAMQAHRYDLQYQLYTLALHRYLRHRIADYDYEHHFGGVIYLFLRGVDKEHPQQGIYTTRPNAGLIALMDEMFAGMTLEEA
Put plainly: E. coli RecBCD inhibitors, dose response, counter-screen for AddAB inhibitor project, absorbance, V66 E. coli, mutant T4 phage (AID 492957). Type of series: functional, cell-based, Escherichia coli str. K-12 substr. MG1655.

Series [2] in a line: Counterscreen for AddAB inhibitors: absorbance-based bacterial cell-based high throughput dose response assay for inhibitors of bacterial viability. [Related pubchem assays (depositor defined):AID435030, AID449728, AID449731, AID488942, AID488955, AID488956]. Type of series: functional. (In general: The purpose of a counterscreen is to sort out artefacts and off-target activity.)

The next series addresses T2, Cytochrome P450 1A2 (Homo sapiens, UniProt P05177).
T2 sequence (P05177 whole entry): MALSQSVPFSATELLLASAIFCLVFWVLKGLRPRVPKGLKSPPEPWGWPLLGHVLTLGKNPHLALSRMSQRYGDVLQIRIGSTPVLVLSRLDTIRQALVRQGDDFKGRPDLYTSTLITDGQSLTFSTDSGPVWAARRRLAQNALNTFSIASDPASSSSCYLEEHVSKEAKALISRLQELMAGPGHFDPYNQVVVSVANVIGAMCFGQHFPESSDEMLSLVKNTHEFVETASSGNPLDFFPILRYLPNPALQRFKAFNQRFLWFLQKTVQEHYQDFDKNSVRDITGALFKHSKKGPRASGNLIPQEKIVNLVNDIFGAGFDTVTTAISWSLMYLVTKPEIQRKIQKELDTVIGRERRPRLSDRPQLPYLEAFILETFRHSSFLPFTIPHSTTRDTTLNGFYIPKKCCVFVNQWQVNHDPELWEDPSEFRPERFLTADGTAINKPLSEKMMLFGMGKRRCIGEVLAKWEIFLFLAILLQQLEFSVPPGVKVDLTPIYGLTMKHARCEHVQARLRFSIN

The nature of series [3]: inhibitors of intracellular T. cruzi replication, confirmation, NIH3T3 host cells, beta-gal luminescence (AID 2044).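 Further: intracellular parasites grown in NIH/3T3 mouse fibroblasts as host cells; luminescent beta-galactosidase reporter signal from transgenic T. cruzi replicating inside host cells; inhibitors lower the luminescence signal.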 Type of series: functional, cell-based.
Series [4] is described as follows: cytotoxicity toward NIH3T3 fibroblasts, dose response, counter-screen, cell-based, ATP luminescence, mouse fibroblasts (AID 2010).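 Further: cells exposed to compound for about 90 hours before reading.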 Format: functional.
The nature of series [5]: Shn3 3'UTR reporter inhibitors, dose response, cell-based, Clone20 osteoblasts, firefly luciferase, cherry-picked (AID 624132).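 Further: firefly luciferase luminescence from reporter carrying the Shn3 3'UTR in osteoblasts.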 Format: functional.
A short description of series [6]: HepG2 cell cytotoxicity, dose response, cytotoxicity control for Shn3 inhibitor project, CellTiter-Glo, cherry-picked (AID 624134). Format: functional, cell-based.

Chain of Cytochrome P450 2D6 (P10635 whole entry): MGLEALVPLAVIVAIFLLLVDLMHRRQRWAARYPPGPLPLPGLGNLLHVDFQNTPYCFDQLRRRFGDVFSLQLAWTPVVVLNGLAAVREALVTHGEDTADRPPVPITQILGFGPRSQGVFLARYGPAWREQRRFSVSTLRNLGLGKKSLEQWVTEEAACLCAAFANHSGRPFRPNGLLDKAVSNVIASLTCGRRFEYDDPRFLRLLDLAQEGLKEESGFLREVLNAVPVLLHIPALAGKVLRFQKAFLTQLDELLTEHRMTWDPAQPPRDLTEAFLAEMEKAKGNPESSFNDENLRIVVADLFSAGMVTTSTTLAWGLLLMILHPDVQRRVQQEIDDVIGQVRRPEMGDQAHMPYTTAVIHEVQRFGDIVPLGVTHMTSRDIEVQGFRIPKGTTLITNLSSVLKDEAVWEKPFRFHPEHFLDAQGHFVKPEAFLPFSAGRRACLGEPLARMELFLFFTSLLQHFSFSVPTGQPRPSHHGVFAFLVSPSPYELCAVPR
Chain of Cytochrome P450 3A4 (P08684 whole entry): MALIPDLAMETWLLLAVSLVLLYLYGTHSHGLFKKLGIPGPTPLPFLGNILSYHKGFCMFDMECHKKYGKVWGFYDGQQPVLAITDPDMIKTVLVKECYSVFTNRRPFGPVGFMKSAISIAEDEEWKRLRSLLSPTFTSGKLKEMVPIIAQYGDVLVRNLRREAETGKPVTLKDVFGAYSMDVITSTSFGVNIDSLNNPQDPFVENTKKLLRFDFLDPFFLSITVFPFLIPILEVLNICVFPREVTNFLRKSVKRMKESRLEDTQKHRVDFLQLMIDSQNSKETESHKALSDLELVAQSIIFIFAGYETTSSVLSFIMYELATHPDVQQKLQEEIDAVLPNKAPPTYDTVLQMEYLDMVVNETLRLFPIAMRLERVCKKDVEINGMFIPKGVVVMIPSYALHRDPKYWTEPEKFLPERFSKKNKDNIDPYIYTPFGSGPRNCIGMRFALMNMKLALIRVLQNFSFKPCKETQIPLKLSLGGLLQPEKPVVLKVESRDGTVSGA
Chain of Cytochrome P450 2C19 (P33261 whole entry): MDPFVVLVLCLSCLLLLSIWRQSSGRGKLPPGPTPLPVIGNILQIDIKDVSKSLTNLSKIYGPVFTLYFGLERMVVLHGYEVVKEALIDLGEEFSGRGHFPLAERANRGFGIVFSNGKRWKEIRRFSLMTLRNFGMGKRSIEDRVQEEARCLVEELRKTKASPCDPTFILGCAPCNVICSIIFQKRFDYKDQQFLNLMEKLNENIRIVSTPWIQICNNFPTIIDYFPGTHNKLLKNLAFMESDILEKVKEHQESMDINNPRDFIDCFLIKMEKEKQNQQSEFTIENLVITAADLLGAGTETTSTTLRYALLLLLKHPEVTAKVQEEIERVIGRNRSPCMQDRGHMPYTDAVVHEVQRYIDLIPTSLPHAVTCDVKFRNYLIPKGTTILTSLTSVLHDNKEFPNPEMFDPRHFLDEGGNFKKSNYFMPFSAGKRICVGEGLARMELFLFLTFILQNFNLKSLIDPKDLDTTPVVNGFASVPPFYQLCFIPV
Chain of Voltage-dependent T-type calcium channel subunit alpha-1H (O95180 whole entry): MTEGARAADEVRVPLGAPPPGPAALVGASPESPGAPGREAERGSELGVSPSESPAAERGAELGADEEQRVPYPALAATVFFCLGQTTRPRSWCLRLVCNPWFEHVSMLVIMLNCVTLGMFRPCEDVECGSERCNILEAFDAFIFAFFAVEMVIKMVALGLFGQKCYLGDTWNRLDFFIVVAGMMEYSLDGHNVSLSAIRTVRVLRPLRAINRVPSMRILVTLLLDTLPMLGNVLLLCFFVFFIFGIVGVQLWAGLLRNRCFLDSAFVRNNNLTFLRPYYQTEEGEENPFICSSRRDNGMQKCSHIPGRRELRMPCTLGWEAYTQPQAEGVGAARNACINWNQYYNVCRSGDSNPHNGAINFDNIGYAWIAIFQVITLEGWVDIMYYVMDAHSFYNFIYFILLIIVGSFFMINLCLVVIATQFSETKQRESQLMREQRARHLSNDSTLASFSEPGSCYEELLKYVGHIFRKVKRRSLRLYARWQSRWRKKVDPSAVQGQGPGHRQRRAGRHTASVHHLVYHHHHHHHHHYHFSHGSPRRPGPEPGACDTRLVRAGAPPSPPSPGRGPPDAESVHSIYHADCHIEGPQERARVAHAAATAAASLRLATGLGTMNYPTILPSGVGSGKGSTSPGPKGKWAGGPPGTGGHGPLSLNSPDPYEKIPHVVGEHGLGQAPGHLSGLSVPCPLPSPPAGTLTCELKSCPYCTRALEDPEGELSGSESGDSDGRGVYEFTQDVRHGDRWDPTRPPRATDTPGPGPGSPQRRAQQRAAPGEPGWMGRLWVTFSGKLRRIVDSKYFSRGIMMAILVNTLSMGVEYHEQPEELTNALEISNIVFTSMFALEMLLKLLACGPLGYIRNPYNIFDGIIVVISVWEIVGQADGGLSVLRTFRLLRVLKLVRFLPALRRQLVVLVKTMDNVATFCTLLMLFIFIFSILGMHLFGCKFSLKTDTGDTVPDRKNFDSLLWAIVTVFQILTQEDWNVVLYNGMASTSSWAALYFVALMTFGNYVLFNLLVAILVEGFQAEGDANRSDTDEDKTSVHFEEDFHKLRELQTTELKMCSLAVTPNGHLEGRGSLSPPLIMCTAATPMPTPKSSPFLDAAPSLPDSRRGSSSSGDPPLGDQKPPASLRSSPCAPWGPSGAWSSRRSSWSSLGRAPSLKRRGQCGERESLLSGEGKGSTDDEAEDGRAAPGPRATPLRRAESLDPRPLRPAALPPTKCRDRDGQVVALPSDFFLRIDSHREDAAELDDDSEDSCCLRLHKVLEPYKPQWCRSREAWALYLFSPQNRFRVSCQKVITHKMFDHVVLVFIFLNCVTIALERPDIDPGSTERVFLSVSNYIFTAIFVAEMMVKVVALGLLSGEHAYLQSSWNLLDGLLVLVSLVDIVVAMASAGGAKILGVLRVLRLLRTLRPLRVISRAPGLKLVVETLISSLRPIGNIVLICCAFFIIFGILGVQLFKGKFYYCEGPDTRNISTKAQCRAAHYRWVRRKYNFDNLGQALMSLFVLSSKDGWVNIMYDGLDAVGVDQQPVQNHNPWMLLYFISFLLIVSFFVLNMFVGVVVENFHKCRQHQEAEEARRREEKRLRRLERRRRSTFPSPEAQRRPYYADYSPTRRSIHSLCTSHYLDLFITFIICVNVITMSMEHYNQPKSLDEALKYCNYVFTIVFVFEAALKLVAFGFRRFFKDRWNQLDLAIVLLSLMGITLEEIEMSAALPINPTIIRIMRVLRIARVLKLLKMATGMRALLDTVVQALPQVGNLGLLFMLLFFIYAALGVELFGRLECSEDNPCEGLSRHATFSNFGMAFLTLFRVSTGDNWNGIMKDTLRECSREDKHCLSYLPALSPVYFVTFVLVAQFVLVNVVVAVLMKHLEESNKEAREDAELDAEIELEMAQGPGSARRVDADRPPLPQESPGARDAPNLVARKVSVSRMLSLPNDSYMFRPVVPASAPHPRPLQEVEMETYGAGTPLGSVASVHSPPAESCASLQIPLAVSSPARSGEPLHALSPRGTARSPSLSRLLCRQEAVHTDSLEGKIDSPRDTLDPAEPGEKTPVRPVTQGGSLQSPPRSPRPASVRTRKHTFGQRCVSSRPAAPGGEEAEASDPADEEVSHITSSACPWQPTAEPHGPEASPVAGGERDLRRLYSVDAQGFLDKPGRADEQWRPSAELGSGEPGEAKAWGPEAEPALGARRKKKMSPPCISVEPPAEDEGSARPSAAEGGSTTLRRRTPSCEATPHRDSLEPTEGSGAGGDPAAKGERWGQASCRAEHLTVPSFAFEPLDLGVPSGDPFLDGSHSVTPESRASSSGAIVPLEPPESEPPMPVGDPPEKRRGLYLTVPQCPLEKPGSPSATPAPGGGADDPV

The term AC50 denotes the concentration at which the activity in the assay is half-maximal. Regarding `CC(C)NC(=O)N1CCCC2(CCN(C(=O)c3cccc(F)c3)CC2)C1`, the AC50 entry was “inconclusive” at Cytochrome P450 2C19, 25.1 µM (inconclusive) on Cytochrome P450 3A4 and “inconclusive” on Cytochrome P450 2D6.

By EC50 is commonly meant the concentration that produces a half-maximal response. `Cc1ccc(-c2nnn(CC(=O)N(c3ccccc3)C(C(=O)NCC3CCCO3)c3ccc(Cl)cc3)n2)cc1` (stereo unspecified): in series [1], the EC50 is 11.1 µM (active). The AC50 on Cytochrome P450 2C19 (read-out: AC50) was 1.12 µM (inconclusive); at Cytochrome P450 3A4, 39.8 µM (inconclusive); at Cytochrome P450 2D6, “inconclusive”.

`Cc1nc(-c2noc(-c3ccccc3Cl)n2)c(C(F)(F)F)o1`: the AC50 in the series with HeLa is 291 µM (active).

A word on the IC50: it is the concentration at which inhibition is half-maximal. For `CCCS(=O)(=O)N1CCC(C(=O)NCc2ccccc2Cl)CC1`, the IC50 (on Exodeoxyribonuclease V; in series [2]) was > 119 µM (inactive) in each case.

With `CCOC(=O)NCN1C(=O)C2C3C=CC(C3)C2C1=O` (stereo unspecified), the AC50 at Cytochrome P450 1A2 is 14.1 µM (inconclusive); at Cytochrome P450 3A4 it was 6.31 µM (inconclusive); at Cytochrome P450 2D6 it was “inconclusive”.

Take `Cc1ccc(CNC(=O)c2ccc3c(O)c(O)c(-c4ccc(C)cc4)nc3c2)cc1`: the EC50 was 1.14 µM (active) in series [3] and 7.02 µM (active) in [4]. The IC50 (on Exodeoxyribonuclease V; in series [2]) was > 119 µM (inactive) each time. Moreover, the AC50 was 2.82 µM (active) in series [5] and 3.49 µM (active) in series [6].

On to `O=C1CN(/N=C\c2ccc(-c3ccc([N+](=O)[O-])cc3)o2)C(O)=N1`, for which the AC50 result on Cytochrome P450 2D6 is “inactive”.

With `Cc1ccc(/C=N/c2sc3c(c2C#N)CCC3)s1`, the AC50 with HeLa was 82 µM (active).
